# Measurements published in patent publication US7998978B2 (Pfizer Inc., priority 2006, dated 2011).
# Biological target: T1, JNK1α1 (Homo sapiens, UniProt P45983)
# T1 construct: catalytic domain containing amino acids 1-364 and N-terminal hexahistidine tag; hexahistidine (His6) (N); made in house; host or cells: E. coli BL21 (DE3)
# Experiment: Coupled spectrophotometric (PK/LDH) JNK1α1 assay: % inhibition and Ki determination
# Type: biochemical
# Settings: @1 uM; read-out: % Inhibition JNK-1
# In short: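 Initial rates were taken from the absorbance decrease at 340 nm at 30° C. Ki was fitted with a tight-binding model over 11 concentrations (top 100 μM); single-point inhibition was tested at 1 or 10 μM.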
# T1 sequence (P45983 1-364): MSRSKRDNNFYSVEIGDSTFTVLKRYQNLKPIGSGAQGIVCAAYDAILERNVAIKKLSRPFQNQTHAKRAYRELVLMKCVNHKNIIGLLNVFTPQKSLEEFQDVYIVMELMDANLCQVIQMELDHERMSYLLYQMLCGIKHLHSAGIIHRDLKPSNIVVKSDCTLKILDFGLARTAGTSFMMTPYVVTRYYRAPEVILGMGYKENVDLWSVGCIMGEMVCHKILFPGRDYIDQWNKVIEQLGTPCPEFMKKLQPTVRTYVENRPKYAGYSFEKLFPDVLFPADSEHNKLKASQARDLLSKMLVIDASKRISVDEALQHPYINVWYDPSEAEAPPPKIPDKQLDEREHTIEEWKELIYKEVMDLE
row,inhibition at 1 µM,Structure (SMILES)
1,13%,"O=C(NCc1nncn1C1CCCCC1)c1cccc2cnc(N[C@H]3CC[C@H](O)CC3)nc12 [Example 497, N-[(4-cyclohexyl-4H-1,2,4-triazol-3-yl)methyl]-2-[(trans-4-hydroxycyclohexyl)amino]quinazoline-8-carboxamide]"
2,11%,"Cc1ccn(CCNC(=O)c2cccc3cnc(N[C@H]4CC[C@H](O)CC4)nc23)n1 [Example 498, 2-[(trans-4-hydroxycyclohexyl)amino]-N-[2-(3-methyl-1H-pyrazol-1-yl)ethyl]quinazoline-8-carboxamide]"
3,8%,"O=C(NCCc1cn2cccnc2n1)c1cccc2cnc(N[C@H]3CC[C@H](O)CC3)nc12 [Example 499, 2-[(trans-4-hydroxycyclohexyl)amino]-N-(2-imidazo[1,2-a]pyrimidin-2-ylethyl)quinazoline-8-carboxamide]"
4,37%,"COC[C@H]1CCC[C@H]1NC(=O)c1cccc2cnc(N[C@H]3CC[C@H](O)CC3)nc12 [Example 506, 2-[(trans-4-hydroxycyclohexyl)amino]-N-[(1R,2S)-2-(methoxymethyl)cyclopentyl]quinazoline-8-carboxamide]"
5,25%,"O=C(NCCn1cccn1)c1cccc2cnc(N[C@H]3CC[C@H](O)CC3)nc12 [Example 507, 2-[(trans-4-hydroxycyclohexyl)amino]-N-[2-(1H-pyrazol-1-yl)ethyl]quinazoline-8-carboxamide]"
6,21%,"CCN1CC(CNC(=O)c2cccc3cnc(N[C@H]4CC[C@H](O)CC4)nc23)CC1=O (stereo partly drawn) [Example 508, N-[(1-ethyl-5-oxopyrrolidin-3-yl)methyl]-2-[(trans-4-hydroxycyclohexyl)amino]quinazoline-8-carboxamide]"
7,21%,"O=C(NCc1nc(-c2ccccc2)no1)c1cccc2cnc(N[C@H]3CC[C@H](O)CC3)nc12 [Example 513, 2-[(trans-4-hydroxycyclohexyl)amino]-N-[(3-phenyl-1,2,4-oxadiazol-5-yl)methyl]quinazoline-8-carboxamide]"
8,11%,"Cc1nnc(CNC(=O)c2cccc3cnc(N[C@H]4CC[C@H](O)CC4)nc23)o1 [Example 514, 2-[(trans-4-hydroxycyclohexyl)amino]-N-[(5-methyl-1,3,4-oxadiazol-2-yl)methyl]quinazoline-8-carboxamide]"
9,19%,"O=C(NCCC1CCCCO1)c1cccc2cnc(N[C@H]3CC[C@H](O)CC3)nc12 (stereo partly drawn) [Example 515, 2-[(trans-4-hydroxycyclohexyl)amino]-N-[2-(tetrahydro-2H-pyran-2-yl)ethyl]quinazoline-8-carboxamide]"
10,26%,"CNC(=O)[C@H](C)NC(=O)c1cccc2cnc(N[C@H]3CC[C@H](O)CC3)nc12 [Example 516, 2-[(trans-4-hydroxycyclohexyl)amino]-N-[(1S)-1-methyl-2-(methylamino)-2-oxoethyl]quinazoline-8-carboxamide]"
11,16%,"O=C(N[C@H]1CCN(C(=O)c2ccccc2)C1)c1cccc2cnc(N[C@H]3CC[C@H](O)CC3)nc12 [Example 517, N-(1-benzoylpyrrolidin-3-yl)-2-[(trans-4-hydroxycyclohexyl)amino]quinazoline-8-carboxamide]"
12,9%,"CC(=O)N1CCC(NC(=O)c2cccc3cnc(N[C@H]4CC[C@H](O)CC4)nc23)CC1 [Example 519, N-(1-acetylpiperidin-4-yl)-2-[(trans-4-hydroxycyclohexyl)amino]quinazoline-8-carboxamide]"
13,10%,"Cn1c(CCNC(=O)c2cccc3cnc(N[C@H]4CC[C@H](O)CC4)nc23)nc2cccnc21 [Example 520, 2-[(trans-4-hydroxycyclohexyl)amino]-N-[2-(3-methyl-3H-imidazo[4,5-b]pyridin-2-yl)ethyl]quinazoline-8-carboxamide]"
14,49%,"Cc1cc(CNC(=O)c2cccc3cnc(N[C@H]4CC[C@H](O)CC4)nc23)nn1C [Example 521, N-[(1,5-dimethyl-1H-pyrazol-3-yl)methyl]-2-[(trans-4-hydroxycyclohexyl)amino]quinazoline-8-carboxamide]"
15,18%,"Cc1nnc(CCNC(=O)c2cccc3cnc(N[C@H]4CC[C@H](O)CC4)nc23)o1 [Example 522, 2-[(trans-4-hydroxycyclohexyl)amino]-N-[2-(5-methyl-1,3,4-oxadiazol-2-yl)ethyl]quinazoline-8-carboxamide]"
16,34%,"Cc1noc(C(NC(=O)c2cccc3cnc(N[C@H]4CC[C@H](O)CC4)nc23)c2ccccc2)n1 (stereo partly drawn) [Example 527, 2-[(trans-4-hydroxycyclohexyl)amino]-N-[(3-methyl-1,2,4-oxadiazol-5-yl)(phenyl)methyl]quinazoline-8-carboxamide]"
17,26%,"O=C(NCCn1ccccc1=O)c1cccc2cnc(N[C@H]3CC[C@H](O)CC3)nc12 [Example 528, 2-[(trans-4-hydroxycyclohexyl)amino]-N-[2-(2-oxopyridin-1(2H)-yl)ethyl]quinazoline-8-carboxamide]"
18,16%,"CCN1CC(CNC(=O)c2cccc3cnc(N[C@H]4CC[C@H](O)CC4)nc23)OCC1=O (stereo partly drawn) [Example 529, N-[(4-ethyl-5-oxomorpholin-2-yl)methyl]-2-[(trans-4-hydroxycyclohexyl)amino]quinazoline-8-carboxamide]"

# Same assay, conditions: @10 uM; read-out: % Inhibition JNK-1
row,inhibition at 10 µM,Structure (SMILES)
1,38%,"CC(C)c1noc(CNC(=O)c2cccc3cnc(N[C@H]4CC[C@H](O)CC4)nc23)n1 [Example 500, 2-[(trans-4-hydroxycyclohexyl)amino]-N-[(3-isopropyl-1,2,4-oxadiazol-5-yl)methyl]quinazoline-8-carboxamide]"
2,60%,"O=C(NCc1noc(-c2ccccc2)n1)c1cccc2cnc(N[C@H]3CC[C@H](O)CC3)nc12 [Example 501, 2-[(trans-4-hydroxycyclohexyl)amino]-N-[(5-phenyl-1,2,4-oxadiazol-3-yl)methyl]quinazoline-8-carboxamide]"
3,50%,"CC(C)c1nc(CNC(=O)c2cccc3cnc(N[C@H]4CC[C@H](O)CC4)nc23)no1 [Example 502, 2-[(trans-4-hydroxycyclohexyl)amino]-N-[(5-isopropyl-1,2,4-oxadiazol-3-yl)methyl]quinazoline-8-carboxamide]"
4,54%,"CC(C)(C)N1CC(CNC(=O)c2cccc3cnc(N[C@H]4CC[C@H](O)CC4)nc23)CC1=O (stereo partly drawn) [Example 503, N-[(1-tert-butyl-5-oxopyrrolidin-3-yl)methyl]-2-[(trans-4-hydroxycyclohexyl)amino]quinazoline-8-carboxamide]"
5,40%,"CC(C)(C)C(=O)N1CCC(NC(=O)c2cccc3cnc(N[C@H]4CC[C@H](O)CC4)nc23)C1 (stereo partly drawn) [Example 504, N-[1-(2,2-dimethylpropanoyl)pyrrolidin-3-yl]-2-[(trans-4-hydroxycyclohexyl)amino]quinazoline-8-carboxamide]"
6,58%,"CC(=O)N1CCC(CNC(=O)c2cccc3cnc(N[C@H]4CC[C@H](O)CC4)nc23)CC1 [Example 505, N-[(1-acetylpiperidin-4-yl)methyl]-2-[(trans-4-hydroxycyclohexyl)amino]quinazoline-8-carboxamide]"
7,49%,"CN(C)C(=O)CNC(=O)c1cccc2cnc(N[C@H]3CC[C@H](O)CC3)nc12 [Example 509, N-[2-(dimethylamino)-2-oxoethyl]-2-[(trans-4-hydroxycyclohexyl)amino]quinazoline-8-carboxamide]"
8,25%,"Cc1nnc(C(C)NC(=O)c2cccc3cnc(N[C@H]4CC[C@H](O)CC4)nc23)[nH]1 (stereo partly drawn) [Example 510, 2-[(trans-4-hydroxycyclohexyl)amino]-N-[1-(5-methyl-4H-1,2,4-triazol-3-yl)ethyl]quinazoline-8-carboxamide]"
9,47%,"Cc1nnc(CNC(=O)c2cccc3cnc(N[C@H]4CC[C@H](O)CC4)nc23)[nH]1 [Example 511, 2-[(trans-4-hydroxycyclohexyl)amino]-N-[(5-methyl-4H-1,2,4-triazol-3-yl)methyl]quinazoline-8-carboxamide]"
10,31%,"Cc1cc(C)nc(CNC(=O)c2cccc3cnc(N[C@H]4CC[C@H](O)CC4)nc23)n1 [Example 512, N-[(4,6-dimethylpyrimidin-2-yl)methyl]-2-[(trans-4-hydroxycyclohexyl)amino]quinazoline-8-carboxamide]"
11,60%,"O=C(NCc1ccc(C2CC2)cn1)c1cccc2cnc(N[C@H]3CC[C@H](O)CC3)nc12 [Example 518, N-[(5-cyclopropylpyridin-2-yl)methyl]-2-[(trans-4-hydroxycyclohexyl)amino]quinazoline-8-carboxamide]"
12,44%,"Cc1noc(CCNC(=O)c2cccc3cnc(N[C@H]4CC[C@H](O)CC4)nc23)n1 [Example 523, 2-[(trans-4-hydroxycyclohexyl)amino]-N-[2-(3-methyl-1,2,4-oxadiazol-5-yl)ethyl]quinazoline-8-carboxamide]"
13,47%,"Cc1ccn2cc(CCNC(=O)c3cccc4cnc(N[C@H]5CC[C@H](O)CC5)nc34)nc2n1 [Example 524, 2-[(trans-4-hydroxycyclohexyl)amino]-N-[2-(7-methylimidazo[1,2-a]pyrimidin-2-yl)ethyl]quinazoline-8-carboxamide]"
14,41%,"CN1CC(CNC(=O)c2cccc3cnc(N[C@H]4CC[C@H](O)CC4)nc23)OCC1=O (stereo partly drawn) [Example 525, 2-[(trans-4-hydroxycyclohexyl)amino]-N-[(4-methyl-5-oxomorpholin-2-yl)methyl]quinazoline-8-carboxamide]"
15,41%,"O=C(NCC1CN(C2CCC2)C(=O)CO1)c1cccc2cnc(N[C@H]3CC[C@H](O)CC3)nc12 (stereo partly drawn) [Example 526, N-[(4-cyclobutyl-5-oxomorpholin-2-yl)methyl]-2-[(trans-4-hydroxycyclohexyl)amino]quinazoline-8-carboxamide]"
